“Also recorded” adds a separate entry of the source.
Tests used:
[1] = tested on: antip5'A2'p5'A2'p5'Aserum; assay: Reactivity of 2',5'-oligoadenylates with antibody (enzyme-linked immunoassay); assay type: binding; details: for IC50: enzyme-linked immunoassay, read-out: IC50, concentration required to achieve a 50% inhibition of reactivity with antip5'A2'p5'A2'p5'Aserum
Description: ^a Concentration in nanomolar required to achieve a 50% inhibition of
reactivity with antip5'A2'p5'A2'p5'Aserum in an enzymelinked immunoassay.

[2] = tested on: 2-5A-dependent endoribonuclease (RNase L); assay: 2-5A-enhanced degradation of [3H]-encephalomyocarditis virus RNA in cell extracts (activation of RNase L); assay type: biochemical, mouse
Description: (§1) To ascertain if the 2'-terminally modified (2'→5')oligonucleotides prevented the protein synthesis inhibitory action of 2-5A by the same mechanism as does p5'A2'p5'A2'p5'A (i.e., by preventing the activation of the 2-5A-dependent endoribonuclease), the 2-5A-enhanced degradation of [^3 H]-encephalomyocarditis virus RNA was followed in extracts of mouse L cells in the presence or absence of the modified tetramer monophosphate (12). The 2-5A-activated degradation of encephalomyocarditis virus RNA was prevented by 12; furthermore, there was good agreement between the results since in both instances a concentration of 8×10^-5 M 12 caused approximately a 1000-fold increase in the concentration of ppp5'A2'p5'A2'p5'A needed to effect 50% of the maximum inhibition.
The enhanced activity of the 2'-terminally modified tetramer triphosphate 13 also was observed when the degradation of [^3 H]-encephalomycarditis virus RNA in cell extracts was examined. Modified tetramer triphosphate (13) enhanced degradation of labeled RNA with a concentration of 9×10^-11 M necessary to elicit a half-maximal response compared to ppp5'A2'p5'A2'p5'A which required a concentration of 9×10^-10 M to elicit a half-maximal response. In addition, there was good correlation between these values and the corresponding concentrations response for inhibition of protein synthesis.

reticulocyte lysate = details: compared to tetramer triphosphate; cited from earlier work
[3] = Stability of 2',5'-oligoadenylates in mouse L-cell extracts, immunochemical study; assay type: in vitro ADME
Method: Oligoadenylates at a final concentration of 400 nM were incubated under protein synthesis conditions (minus [^3 H]-leu and EMCV RNA) at 30° C. for 0-6 hours. Samples were removed diluted with an equal volume of phosphate-buffered saline (PBS, 0.01M sodium phosphate, pH 7.4, 0.14M NaCl) with added 0.05% polyoxyethylene sorbitan monolaurate, (PSM) and then heated at 95° C. for 10-15 minutes. After cooling, the samples were centrifuged for 1 min. at room temperature in an Eppendorf microfuge. The supernatant samples were serially diluted (three-fold) in 0.05% PSM prior to analysis in a competitive enzyme-linked antibody assay.
In a second series of experiments, the degradation of both the 5'-monophosphates and 5'-triphosphate of the terminally modified oligomers was compared to the degradation of the corresponding unmodified mono- and tri-phosphates. In this case, however, the course of reaction was followed using an immunoenzymometric assay for 2-5A and its derivatives. The antiserum employed in this study was inhibited 50% by both the unmodified and 2'-terminally modified 2',5'-oligoadenylates in the nanomolar range, the tetramer oligoadenylates being 2-5 times more reactive than the corresponding trimer species (Table 3, experimental). In contrast, the dimers were much less reactive, requiring concentrations of about 300 nM to achieve this same level of inhibition. […]

2-5A synthetase = assay: Kinetics of 2-5A synthesis in the presence of compound 11 or 12; assay type: biochemical, mouse; details: standard synthetase assay conditions
Method: Incubation was at 30° for the designated times at which aliquots (35 μL) were removed and diluted 10× in cold H2 O. These diluted reaction mixtures were frozen at -90° until analysis.
Reaction mixture were analyzed by thin layer chromatography by spotting 2 μL of the diluted reaction mixture on a plastic PEI cullulose plate (E. Merck). The plate was developed first with solvent system D and then three times with solvent system C. […] A template of the developed film was made with aid of tracing paper, and this was used to locate the corresponding radioactive spots on the tlc plate. The plate was cut according to the positions indicated by the template, and the resulting pieces were counted with 10 mls of fluor in a standard scintillation vial. The percentage of each radioactive component by the gross radioactivity associated with all the components visualized on tlc. The position of ATP, pp5'A2'p5'A,pppA2'p5'A2'p5'A, etc. were determined from authentic markers.

[4] = tested on: 2-5A-activated ribonuclease (translational inhibitory effects of ppp5'A2'p5'A2'p5'A); assay: Antagonism of 2-5A trimer triphosphate translational inhibition in mouse L cell extracts; assay type: biochemical
Method: (§2) The preparation of cell extracts and the techniques and conditions of cell-free protein synthesis in extracts of interferon-treated or untreated mouse L cells have been described elsewhere.
This observation provided a relatively simple approach to determine if a given nucleotide or oligoribonucleotide is capable of significant binding to the 2-5A-activated ribonuclease. For this reason, the (2'→5')oligoadenylates 5'-monophosphates, 11 and 12, were evaluated first for their ability to block the translational inhibitory effects of ppp5'A2'p5'A2'p5'A in extracts of mouse L cells programmed by encephalomyocarditis virus RNA. In the experiment, the 2-5A trimer, ppp5'A2'p5'A2'p5'A, was added in varying concentrations, with or without the tetranucleotide 5'-monophosphate inhibited translation with a concentration for half-maximal response of ~2×10^-9 M in agreement with other values in the literature. However, when 12 was also present at a concentration of 8×10^-5 M, there was at least a 1000-fold increase in the concentration of 2-5A trimer triphosphate required to bring about a half-maximal inhibition of protein synthesis. […]

[5] = tested on: protein synthesis in mouse L cell extracts programmed by encephalomyocarditis virus RNA; assay: Inhibition of protein synthesis (translation) in extracts of mouse L cells programmed with encephalomyocarditis virus RNA; assay type: biochemical; details: tetramer (12) alone
Method: as §2
This observation provided a relatively simple approach to determine if a given nucleotide or oligoribonucleotide is capable of significant binding to the 2-5A-activated ribonuclease. For this reason, the (2'→5')oligoadenylates 5'-monophosphates, 11 and 12, were evaluated first for their ability to block the translational inhibitory effects of ppp5'A2'p5'A2'p5'A in extracts of mouse L cells programmed by encephalomyocarditis virus RNA. In the experiment, the 2-5A trimer, ppp5'A2'p5'A2'p5'A, was added in varying concentrations, with or without the tetranucleotide 5'-monophosphate inhibited translation with a concentration for half-maximal response of ~2×10^-9 M in agreement with other values in the literature. However, when 12 was also present at a concentration of 8×10^-5 M, there was at least a 1000-fold increase in the concentration of 2-5A trimer triphosphate required to bring about a half-maximal inhibition of protein synthesis.

[6] = tested on: poly(I)·poly(C) action (2-5A synthetase-endonuclease system); assay: Antagonism of poly(I).poly(C) protein synthesis inhibition in extracts of interferon-treated mouse L cells; assay type: biochemical
Description: as §2
This observation implied that the inhibitory action of poly(I)·poly(C) is mediated chiefly by the 2-5A synthetase-endonuclease system. […] As observed previously with p5'A2'p5'A2'p5'A, the reversal of inhibition of poly(I)·poly(C) was not complete.

[7] = tested on: 2-5A-dependent endoribonuclease; assay: Prevention of 2-5A-activated degradation of [3H]-encephalomyocarditis virus RNA in extracts of mouse L cells; assay type: biochemical
Description: as §1

Molecule | antibody inhibition by mononucleotides and adenosine [1] | IC50 [1] | activity as activator of RNase L (in words) [2] | biological activity in reticulocyte lysate (reticulocyte lysate) | stability in cell-free extracts relative to unmodified 2',5'-oligoadenylates [3] | antibody reactivity during incubation ([3]; 4×10^-7 M oligomer, 6 hours of incubation) | effect on the rate of synthesis of 2-5A (2-5A synthetase) | effect on the rate of synthesis of 2-5A (2-5A synthetase; listed as "tailed" (pA)4) | effectiveness as antagonist of 2-5A action (in words) [4] | increase in the concentration of 2-5A trimer triphosphate required for half-maximal inhibition of protein synthesis ([4]; 12 at 8×10^-5 M) | effect on translation by itself [5] | prevention of protein synthesis inhibition caused by poly(I).poly(C) (in words) [6] | potency in preventing the inhibitory action of poly(I).poly(C) (in words) ([6]; 11 vs 12) | prevention of 2-5A-activated degradation of encephalomyocarditis virus RNA [7] | increase in the concentration of ppp5'A2'p5'A2'p5'A needed to effect 50% of the maximum inhibition ([7]; 8×10^-5 M 12)
Nc1ncnc2c1ncn2[C@@H]1O[C@H](CO)[C@@H](O)[C@H]1O [adenosine] | inhibitory only at millimolar concentrations |  |  |  |  |  |  |  |  |  |  |  |  |  | 
ppp5'A2'p5'A2'p5'A |  | 18 nM | quite similar as activators of RNase L | anomalously low compared to tetramer triphosphate |  |  |  |  |  |  |  |  |  |  | 
5'-monophosphoryladenylyl-(2'→5')-adenylyl-(2'→5')adenylyl(2'→6')(3'-aza-4'-hexyl-1',2',3',4'-tetradeoxyhexopyranos-1'-yl)adenine [Compound 12] |  | 1 nM |  |  | markedly more stable in cell-free extracts than the unmodified 2',5'-oligoadenylates | did not decrease even after 6 hours of incubation; also recorded: increased slightly with time | neither 11 nor 12 affected the rate of formation of 2-5A | neither "tailed" (pA)3 nor "tailed" (pA)4 had any significant effect on the rate of synthesis | somewhat more effective than the trimer 11 in preventing 2-5A action | ≥ 1000 fold | no significant effect on translation | not complete | approximately equal potency | prevented | ~1000 fold
